This passage reports surviving fraction results from the supplement of paper PMC6045584.

± gives the standard deviation of the averaged measurements.

Compound in assay [1]: Cc1c(N)nc([C@H](CC(N)=O)NC[C@H](N)C(N)=O)nc1C(=O)N[C@H](C(=O)N[C@H](C)[C@@H](O)[C@H](C)C(=O)N[C@H](C(=O)NCCc1nc(-c2nc(C(=O)NCCC[S+](C)C)cs2)cs1)[C@@H](C)O)[C@@H](OC1OC(CO)C(O)C(O)C1OC1OC(CO)C(O)C(OC(N)=O)C1O)c1cnc[nH]1 [BLEOMYCIN]
Description: surviving fraction relative to DMSO-only wells; higher = less growth inhibition. The settings on record: exposure time: 5 days. The method in brief:
(§1)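 Log-phase tumour cell lines were seeded at 250–500 cells per well in 384-well plates. After 24 hours they were exposed continuously for five days to inhibitors at 0.5, 1, 5, 10, 50, 100, 500 and 1000 nM. Viability was read by CellTiter-Glo luminescence after 10 minutes at room temperature, and surviving fraction is luminescence normalised to the median of DMSO-only wells. Each line was screened three times and kept only if replicate Pearson r >0.7 and median Z' >0.3.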

Compound in assay [2]: C=CCn1c(=O)c2cnc(Nc3ccc(N4CCN(C)CC4)cc3)nc2n1-c1cccc(C(C)(C)O)n1 [MK-1775]
The description is as above. The settings on record: exposure time: 5 days. The procedure, abridged:
as §1

For MDAMB231 BREAST, the surviving fraction turned out to be 0.961 ± 0.017 in assay [1] (0.5 nM); 0.958 ± 0.018 in assay [1] (1 nM); 0.978 ± 0.014 in assay [1] (5 nM); 0.935 ± 0.019 in assay [1] (10 nM); 0.887 ± 0.028 in assay [1] (50 nM); 0.845 ± 0.021 in assay [1] (100 nM). The surviving fraction turned out to be 0.642 ± 0.029 in assay [1] (500 nM); 0.504 ± 0.01 in assay [1] (1000 nM); 1.01 ± 0.034 in assay [2] (0.5 nM); 1 ± 0.037 in assay [2] (1 nM); 1 ± 0.026 in assay [2] (5 nM); 1 ± 0.04 in assay [2] (10 nM). For the same test system, the surviving fraction in assay [2] (50 nM) worked out at 1.01 ± 0.043; in assay [2] (100 nM), 0.778 ± 0.028; in assay [2] (500 nM), 0.155 ± 0.0079; in assay [2] (1000 nM) it was 0.146 ± 0.0047.
Turning to SG27 HEADNECK, the surviving fraction in assay [1] (0.5 nM) was 1.12 ± 0.06; in assay [1] (1 nM) it was 0.997 ± 0.085; in assay [1] (5 nM), 0.934 ± 0.081; in assay [1] (10 nM), 1.02 ± 0.011; in assay [1] (50 nM), 0.949 ± 0.11; in assay [1] (100 nM) it was 1.01 ± 0.17. Moreover, the surviving fraction in assay [1] (500 nM) is 1.01 ± 0.11; in assay [1] (1000 nM), 0.864 ± 0.14; in assay [2] (0.5 nM) it was 1.04 ± 0.046; in assay [2] (1 nM), 1.04 ± 0.11; in assay [2] (5 nM), 1.08 ± 0.068; in assay [2] (10 nM), 1.03 ± 0.11. In addition, the surviving fraction in assay [2] (50 nM) came to 0.969 ± 0.12; in assay [2] (100 nM), 1.01 ± 0.14; in assay [2] (500 nM), 0.853 ± 0.1; in assay [2] (1000 nM), 0.896 ± 0.061.
On to SYO1 SYNOVIAL, for which the surviving fraction is 0.809 ± 0.058 in assay [1] (0.5 nM); 0.778 ± 0.044 in assay [1] (1 nM); 0.753 ± 0.035 in assay [1] (5 nM); 0.695 ± 0.029 in assay [1] (10 nM); 0.45 ± 0.014 in assay [1] (50 nM); 0.355 ± 0.032 in assay [1] (100 nM). Moreover, the surviving fraction in assay [1] (500 nM) came to 0.104 ± 0.019; in assay [1] (1000 nM), 0.0704 ± 0.019; in assay [2] (0.5 nM), 1.01 ± 0.014; in assay [2] (1 nM) it was 0.977 ± 0.053; in assay [2] (5 nM), 1 ± 0.014; in assay [2] (10 nM) it was 0.9618 ± 0.0076. Moreover, the surviving fraction in assay [2] (50 nM) was determined as 0.658 ± 0.033; in assay [2] (100 nM), 0.317 ± 0.076; in assay [2] (500 nM), 0.473 ± 0.11; in assay [2] (1000 nM) it was 0.0491 ± 0.0039.
With HUO3N1 BONE, the surviving fraction is 0.898 ± 0.053 in assay [1] (0.5 nM); 0.897 ± 0.0087 in assay [1] (1 nM); 0.924 ± 0.016 in assay [1] (5 nM); 0.908 ± 0.044 in assay [1] (10 nM); 0.957 ± 0.031 in assay [1] (50 nM); 0.892 ± 0.059 in assay [1] (100 nM). Further, the surviving fraction in assay [1] (500 nM) came out at 0.676 ± 0.0053; in assay [1] (1000 nM), 0.532 ± 0.025; in assay [2] (0.5 nM), 0.979 ± 0.036; in assay [2] (1 nM), 0.941 ± 0.032; in assay [2] (5 nM), 1 ± 0.034; in assay [2] (10 nM), 1.01 ± 0.039. Moreover, the surviving fraction in assay [2] (50 nM) was 0.995 ± 0.02; in assay [2] (100 nM) it was 0.843 ± 0.041; in assay [2] (500 nM), 0.348 ± 0.014; in assay [2] (1000 nM), 0.204 ± 0.015.
For H23 LUNG, the surviving fraction in assay [1] (0.5 nM) is 0.955 ± 0.013; in assay [1] (1 nM) it was 0.954 ± 0.032; in assay [1] (5 nM) it was 0.886 ± 0.057; in assay [1] (10 nM), 0.763 ± 0.028; in assay [1] (50 nM), 0.509 ± 0.026; in assay [1] (100 nM) it was 0.338 ± 0.0076. Also, the surviving fraction turned out to be 0.193 ± 0.014 in assay [1] (500 nM); 0.118 ± 0.011 in assay [1] (1000 nM); 1.04 ± 0.018 in assay [2] (0.5 nM); 1.02 ± 0.041 in assay [2] (1 nM); 1.04 ± 0.06 in assay [2] (5 nM); 1.03 ± 0.1 in assay [2] (10 nM). Further, the surviving fraction in assay [2] (50 nM) is 0.86 ± 0.054; in assay [2] (100 nM), 0.632 ± 0.045; in assay [2] (500 nM), 0.285 ± 0.023; in assay [2] (1000 nM) it was 0.209 ± 0.034.
ASKA SYNOVIAL: the surviving fraction in assay [1] (0.5 nM) stood at 0.897 ± 0.1; in assay [1] (1 nM), 0.895 ± 0.046; in assay [1] (5 nM) it was 0.94 ± 0.096; in assay [1] (10 nM), 0.931 ± 0.028; in assay [1] (50 nM), 0.811 ± 0.027; in assay [1] (100 nM), 0.689 ± 0.026. The surviving fraction in assay [1] (500 nM) was 0.427 ± 0.029; in assay [1] (1000 nM), 0.343 ± 0.015; in assay [2] (0.5 nM), 0.946 ± 0.032; in assay [2] (1 nM), 1.02 ± 0.1; in assay [2] (5 nM) it was 1.1 ± 0.03; in assay [2] (10 nM) it was 1.02 ± 0.023. The surviving fraction in assay [2] (50 nM) worked out at 0.405 ± 0.0092; in assay [2] (100 nM), 0.406 ± 0.012; in assay [2] (500 nM), 0.295 ± 0.019; in assay [2] (1000 nM), 0.37 ± 0.015.
In the case of PCI30 HEADNECK, the surviving fraction in assay [1] (0.5 nM) is 0.917 ± 0.054; in assay [1] (1 nM), 0.887 ± 0.054; in assay [1] (5 nM), 0.942 ± 0.064; in assay [1] (10 nM), 0.958 ± 0.04; in assay [1] (50 nM), 0.655 ± 0.075; in assay [1] (100 nM), 0.509 ± 0.048. Further, the surviving fraction is 0.32 ± 0.044 in assay [1] (500 nM); 0.334 ± 0.033 in assay [1] (1000 nM); 0.926 ± 0.1 in assay [2] (0.5 nM); 0.937 ± 0.054 in assay [2] (1 nM); 1.03 ± 0.036 in assay [2] (5 nM); 1.05 ± 0.16 in assay [2] (10 nM). Besides, the surviving fraction in assay [2] (50 nM) turned out to be 0.884 ± 0.069; in assay [2] (100 nM), 0.745 ± 0.021; in assay [2] (500 nM), 0.195 ± 0.02; in assay [2] (1000 nM) it was 0.137 ± 0.0085.
Take T47D BREAST: the surviving fraction stood at 0.947 ± 0.019 in assay [1] (0.5 nM); 0.915 ± 0.011 in assay [1] (1 nM); 0.891 ± 0.02 in assay [1] (5 nM); 0.9369 ± 0.0063 in assay [1] (10 nM); 0.951 ± 0.02 in assay [1] (50 nM); 0.923 ± 0.039 in assay [1] (100 nM). For the same test system, the surviving fraction in assay [1] (500 nM) worked out at 0.693 ± 0.011; in assay [1] (1000 nM), 0.57 ± 0.03; in assay [2] (0.5 nM) it was 1.07 ± 0.021; in assay [2] (1 nM), 1.05 ± 0.014; in assay [2] (5 nM), 1.1 ± 0.044; in assay [2] (10 nM), 1.01 ± 0.015. The surviving fraction turned out to be 1.06 ± 0.065 in assay [2] (50 nM), 0.979 ± 0.025 in assay [2] (100 nM), 0.453 ± 0.025 in assay [2] (500 nM) and 0.38 ± 0.024 in assay [2] (1000 nM).
